Columns and labels:
hampsters [1] = test: Bile lipid and bile acid contents of the bile (cholesterol-enriched diet, 80 days); type: in vivo
Protocol: (§1) The investigations were carried out on hampsters (of female sex, but excluding those in a state of pregnancy) having an initial weight of 75-90 g. They were treated for 80 days with oral administration (by gastric probe) of MG-UCD (10-20 mg/kg/day), chenodeoxycholic acid (10-20 mg/kg/day) or ursodeoxycholic acid (10-20 mg/kg/day) (Tables 4 and 5). The animals were maintained for 80 consecutive days on a Nossan feed diet for rats, enriched with cholesterol (2 mg/g of food).
(§2) Each experimental group consisted of 10 units. After 80 days, the animals were narcotised with ethyl ether, and the bile was withdrawn, together with the calculi and crystals from the gall-bladder as described by Pearlman and coll. in Gastroenterology 77, 634 (1979).
The bile acid, phospholipid, cholesterol, cholic acid, chenodeoxycholic acid, ursodeoxycholic acid, DCA (deoxycholic acid) and LCA (lithocholic acid) contents were evaluated in the bile by the methods described by Pearlman and coll. (see above).

rat = test: Acute lethality and toxicity, oral administration (gastric probe); type: in vivo; set-up: key to Toxic symptomatology Type: NN = no symptomatology; D = depression; conditions: for % mortality at following times after administration 24 h / % mortality at following times after administration 7 days / Toxic symptomatology Type / Toxic symptomatology Latency: oral; for LD50 (mg/kg with reliability limits) 7 days after treatment: po, probit method
Protocol: (§3) Unless otherwise specified, the research was carried out using: a) Mg-UCD capsules as such; b) the powdered contents of Mg-UCD capsules; CDCA (chenodeoxycholic acid) and UDCA (ursodeoxycholic acid) as pure substance which in all cases was partly dissolved and partly suspended under warm conditions (T = 30°C) in 10% gum arabic mucilage (so as to administer 10-40 ml of liquid per kg orally). In certain cases, namely in the experiments involving parenteral administration, the active principle of Mg-UCD, the chenodeoxycholic acid and ursodeoxycholic acid were dissolved in distilled water of slightly alkaline pH (5-10 ml/kg).
(§4) The generally acute lethality, toxicity and tolerability were determined by oral administration of the Mg-UCD (by gastric probe) in the Mus musculus, rat and dog. Animals of both sexes were used, none of which were pregnant. They were fasted for about 12 hours before treatment (but allowing them free access to water). The investigations were carried out using the Mg-UCD in powder form. Comparative investigations were carried out on the rat and Mus musculus using the active principle by endoperitoneal administration, and chenodeoxycholic acid and ursodeoxycholic acid by oral administration (using a gastric probe). Each dose was administered to 20 rats or Mus musculus (10 male and 10 female) and to eight dogs (4 male and 4 female). The animals were observed attentively during the 7 days following administration, and any lethality, toxic symptoms, disturbances, functional variations determinable with the eye, behaviour etc. were noted.
(§5) The LD50 was determined 7 days after administration using the probit method.

Mus musculus = test: as above; type: in vivo; set-up: key to Toxic symptomatology Type: NN = no symptomatology; D = depression; conditions: for % mortality at following times after administration 24 h / % mortality at following times after administration 7 days / Toxic symptomatology Type / Toxic symptomatology Latency: oral; for LD50 (mg/kg with reliability limits) 7 days after treatment: po, probit method
Protocol: as §3, §4, §5

[2] = Hydrolysis by the gastric juice; conditions: prodrug supplying its two component acids
patients = test: Controlled study in comparison with the free acids; tolerability in patients; type: in vivo
hampsters [3] = test: Action on the formation of cholesterol calculi in the gall-bladder (cholesterol-enriched diet, 80 days); type: in vivo; conditions: for % animals with calculi / % animals with crystals: cholesterol-enriched diet
Protocol: as §1, §2

[4] = Rat F, 5000 mg/kg (1200 Dts/kg)
[5] = Rat F, 10000 mg/kg (2400 Dts/kg)
[6] = Rat M, 5000 mg/kg (1200 Dts/kg)
[7] = Rat M, 10000 mg/kg (2400 Dts/kg)
[8] = M. musculus F, 250 mg/kg (60 Dts/kg)
[9] = M. musculus F, 2500 mg/kg (600 Dts/kg)
[10] = M. musculus F, 5000 mg/kg (1200 Dts/kg)
[11] = M. musculus F, 10000 mg/kg (2400 Dts/kg)
[12] = M. musculus M, 250 mg/kg (60 Dts/kg)
[13] = M. musculus M, 2500 mg/kg (600 Dts/kg)
[14] = M. musculus M, 5000 mg/kg (1200 Dts/kg)
[15] = M. musculus M, 10000 mg/kg (2400 Dts/kg)
[16] = female hampsters, 10 mg/kg/day oral for 80 days
[17] = female hampsters, 20 mg/kg/day oral for 80 days

For “double magnesium salt of chenodeoxycholic acid and ursodeoxycholic acid [Mg-UCD]”, the “Bile acids (expressed as molar % ± s.e.) Cheno-deoxycholic acid” value (hampsters [1]; 10 mg/kg/day oral for 80 days) was 28.6 ± 2.9 molar %, the “Bile acids (expressed as molar % ± s.e.) Cholic acid” value (hampsters [1]; 10 mg/kg/day oral for 80 days) was 18.1 ± 2.6 molar % and the “Bile acids (expressed as molar % ± s.e.) DCA” value (hampsters [1]; 10 mg/kg/day oral for 80 days) was 13.4 ± 0.5 molar %. For the same substance, the “Bile acids (expressed as molar % ± s.e.) LCA” value (hampsters [1]; 10 mg/kg/day oral for 80 days) was 2.4 ± 0.1 molar %, the “Bile acids (expressed as molar % ± s.e.) Urso-deoxycholic acid” value (hampsters [1]; 10 mg/kg/day oral for 80 days) was 21.7 ± 2.9 molar % and the “Bile lipids (expressed as molar % ± s.e.) Bile acids” value (hampsters [1]; 10 mg/kg/day oral for 80 days) was 78.6 ± 5.3 molar %. The “Bile lipids (expressed as molar % ± s.e.) Cholesterol” value (hampsters [1]; 10 mg/kg/day oral for 80 days) was 6.9 ± 0.4 molar %, the “Bile lipids (expressed as molar % ± s.e.) Phospho-lipids” value (hampsters [1]; 10 mg/kg/day oral for 80 days) was 15.6 ± 1.7 molar % and the “Bile acids (expressed as molar % ± s.e.) Cheno-deoxycholic acid” value (hampsters [1]; 20 mg/kg/day oral for 80 days) was 24.4 ± 3.1 molar %. For the same substance, the “Bile acids (expressed as molar % ± s.e.) Cholic acid” value (hampsters [1]; 20 mg/kg/day oral for 80 days) was 11.4 ± 1.7 molar %, the “Bile acids (expressed as molar % ± s.e.) DCA” value (hampsters [1]; 20 mg/kg/day oral for 80 days) was 10.5 ± 0.4 molar % and the “Bile acids (expressed as molar % ± s.e.) LCA” value (hampsters [1]; 20 mg/kg/day oral for 80 days) was 3.6 ± 0.2 molar %. For the same substance, the “Bile acids (expressed as molar % ± s.e.) Urso-deoxycholic acid” value (hampsters [1]; 20 mg/kg/day oral for 80 days) was 54.9 ± 3.6 molar %, the “Bile lipids (expressed as molar % ± s.e.) Bile acids” value (hampsters [1]; 20 mg/kg/day oral for 80 days) was 80.7 ± 4.7 molar % and the “Bile lipids (expressed as molar % ± s.e.) Cholesterol” value (hampsters [1]; 20 mg/kg/day oral for 80 days) was 4.7 ± 0.3 molar %. For the same substance, the “Bile lipids (expressed as molar % ± s.e.) Phospho-lipids” value (hampsters [1]; 20 mg/kg/day oral for 80 days) was 14.7 ± 1.9 molar %, the “% mortality at following times after administration 24 h” value (“% mortality … after administration 24 h” below) (rat; Rat F, 250 mg/kg (60 Dts/kg)) was 0% and the “% mortality at following times after administration 7 days” value (rat; Rat F, 250 mg/kg (60 Dts/kg)) was 0%. For the same substance, the “Toxic symptomatology Type” value (rat; Rat F, 250 mg/kg (60 Dts/kg)) was “NN”, the “% mortality … after administration 24 h” value (rat; Rat F, 2500 mg/kg (600 Dts/kg)) was 0% and the “% mortality at following times after administration 7 days” value (rat; Rat F, 2500 mg/kg (600 Dts/kg)) was 0%. The “Toxic symptomatology Latency” value (rat; Rat F, 2500 mg/kg (600 Dts/kg)) was 5-10 min, the “Toxic symptomatology Type” value (rat; Rat F, 2500 mg/kg (600 Dts/kg)) was “D” and the “% mortality … after administration 24 h” value (rat; [4]) was 0%. For the same substance, the “% mortality at following times after administration 7 days” value (rat; [4]) was 0%, the “Toxic symptomatology Latency” value (rat; [4]) was 5-10 min and the “Toxic symptomatology Type” value (rat; [4]) was “D”. The “% mortality … after administration 24 h” value (rat; [5]) was 10%, the “% mortality at following times after administration 7 days” value (rat; [5]) was 10% and the “Toxic symptomatology Latency” value (rat; [5]) was 5-10 min. For the same substance, the “Toxic symptomatology Type” value (rat; [5]) was “D”, the “LD50 (mg/kg with reliability limits) 7 days after treatment” value (rat; Rat F) was 13100 (10515-16319) mg/kg and the “% mortality … after administration 24 h” value (rat; Rat M, 250 mg/kg (60 Dts/kg)) was 0%. The “% mortality at following times after administration 7 days” value (rat; Rat M, 250 mg/kg (60 Dts/kg)) was 0%, the “Toxic symptomatology Type” value (rat; Rat M, 250 mg/kg (60 Dts/kg)) was “NN” and the “% mortality … after administration 24 h” value (rat; Rat M, 2500 mg/kg (600 Dts/kg)) was 0%. For the same substance, the “% mortality at following times after administration 7 days” value (rat; Rat M, 2500 mg/kg (600 Dts/kg)) was 0%, the “Toxic symptomatology Latency” value (rat; Rat M, 2500 mg/kg (600 Dts/kg)) was 5-10 min and the “Toxic symptomatology Type” value (rat; Rat M, 2500 mg/kg (600 Dts/kg)) was “D”. The “% mortality … after administration 24 h” value (rat; [6]) was 0%, the “% mortality at following times after administration 7 days” value (rat; [6]) was 0% and the “Toxic symptomatology Latency” value (rat; [6]) was 5-10 min. The “Toxic symptomatology Type” value (rat; [6]) was “D”, the “% mortality … after administration 24 h” value (rat; [7]) was 10% and the “% mortality at following times after administration 7 days” value (rat; [7]) was 10%. For the same substance, the “Toxic symptomatology Latency” value (rat; [7]) was 5-10 min, the “Toxic symptomatology Type” value (rat; [7]) was “D” and the “LD50 (mg/kg with reliability limits) 7 days after treatment” value (rat; Rat M) was 14011(10884-18033) mg/kg. The “% mortality … after administration 24 h” value (Mus musculus; [8]) was 0%, the “% mortality at following times after administration 7 days” value (Mus musculus; [8]) was 0% and the “Toxic symptomatology Type” value (Mus musculus; [8]) was “NN”. The “% mortality … after administration 24 h” value (Mus musculus; [9]) was 0%, the “% mortality at following times after administration 7 days” value (Mus musculus; [9]) was 0% and the “Toxic symptomatology Latency” value (Mus musculus; [9]) was 5-10 min. For the same substance, the “Toxic symptomatology Type” value (Mus musculus; [9]) was “D”, the “% mortality … after administration 24 h” value (Mus musculus; [10]) was 0% and the “% mortality at following times after administration 7 days” value (Mus musculus; [10]) was 0%. The “Toxic symptomatology Latency” value (Mus musculus; [10]) was 5-10 min, the “Toxic symptomatology Type” value (Mus musculus; [10]) was “D” and the “% mortality … after administration 24 h” value (Mus musculus; [11]) was 10%. The “% mortality at following times after administration 7 days” value (Mus musculus; [11]) was 10%, the “Toxic symptomatology Latency” value (Mus musculus; [11]) was 5-10 min and the “Toxic symptomatology Type” value (Mus musculus; [11]) was “D”. The “LD50 (mg/kg with reliability limits) 7 days after treatment” value (Mus musculus; M. musculus F) was 14011 (10884-18033) mg/kg, the “% mortality … after administration 24 h” value (Mus musculus; [12]) was 0% and the “% mortality at following times after administration 7 days” value (Mus musculus; [12]) was 0%. The “Toxic symptomatology Type” value (Mus musculus; [12]) was “NN”, the “% mortality … after administration 24 h” value (Mus musculus; [13]) was 0% and the “% mortality at following times after administration 7 days” value (Mus musculus; [13]) was 0%. The “Toxic symptomatology Latency” value (Mus musculus; [13]) was 5-10 min, the “Toxic symptomatology Type” value (Mus musculus; [13]) was “D” and the “% mortality … after administration 24 h” value (Mus musculus; [14]) was 0%. The “% mortality at following times after administration 7 days” value (Mus musculus; [14]) was 0%, the “Toxic symptomatology Latency” value (Mus musculus; [14]) was 5-10 min and the “Toxic symptomatology Type” value (Mus musculus; [14]) was “D”. For the same substance, the “% mortality … after administration 24 h” value (Mus musculus; [15]) was 10%, the “% mortality at following times after administration 7 days” value (Mus musculus; [15]) was 10% and the “Toxic symptomatology Latency” value (Mus musculus; [15]) was 5-10 min. For the same substance, the “Toxic symptomatology Type” value (Mus musculus; [15]) was “D”, the “LD50 (mg/kg with reliability limits) 7 days after treatment” value (Mus musculus; M. musculus M) was 13100 (10515-16319) mg/kg and the “hydrolysis by the gastric juice” value [2] was “hydrolysed slowly”. For the same substance, the anti-dislipidemic effect (patients; in particular hypotriglyceridemic, at much smaller doses than the individual bile acids) was “modest anti-dislipidemic effect”, the side effects (patients; patients) was “No significant side effects” and the “effects compared with the free acids” value (patients; relatively small doses of the salt against double doses of each acid administered separately) was “greater effects”. For the same substance, the “% animals with calculi” value (hampsters [3]; [16]) was 20%, the “% animals with crystals” value (hampsters [3]; [16]) was 20% and the “% animals with calculi” value (hampsters [3]; [17]) was 0%. The “% animals with crystals” value (hampsters [3]; [17]) was 0%, the “Body weight (g ± s.e.) after following days 80” value (hampsters [3]; female hampsters, day 80, oral, 10 mg/kg/day) was 152 ± 8 g and the “appearance of cholesterol calculi and crystals in the gall-bladder” value (hampsters [3]; hampster, oral, more intense than chenodeoxycholic acid or ursodeoxycholic acid) was “hinders the appearance of cholesterol calculi and crystals in the gall-bladder in a dose-dependent manner”.

From EP0092073A1, “Magnesium salt of chenodeoxycholic acid and ursodeoxycholic acid, the process for its preparation, and therapeutic compositions which contain it as active principle” (SCHWARZ ITALIA S.p.A., priority 1982, dated 1983)
